Measured values: US7105534B2, “Imidazo[1,2-α]pyridine ether compounds as ion channel modulators” (Cardiome Pharma Corp., priority 2000, dated 2006)
Counter-ions that a name gives are not always drawn.

How the values were obtained:
Kv1.5 = target: T1, Kv1.5 (Homo sapiens, UniProt P22460); assay: Patch-clamp inhibition of cloned ion channel current in transfected HEK cells: Kv1.5; type: cell-based; conditions: steady-state current, -80 mV to +60 mV
T1 construct: expressed in transfected cells; host or cells: HEK cells, transient transfection, vector pCDNA3
Experimental: (§1) The relevant cloned ion channels (e.g. cardiac hH1, Kv1.4, Kv1.5, Kv4.2, Kv2.1, HERG etc.) are studied by transient transfection into HEK cells using the mammalian expression vector pCDNA3. Transfections for each channel type are carried out separately to allow individual study of the ion channel of interest. Cells expressing channel protein are detected by cotransfecting cells with the vector pHook-1 (Invitrogen, San Diego, Calif., USA). […] Equal concentrations of individual channel and pHook DNA are incubated with 10× concentration of lipofectAce in Modified Eagle's Medium (MEM, Canadian Life Technologies) and incubated with parent HEK cells plated on 25 mm culture dishes. After 3–4 hours the solution is replaced with a standard culture medium plus 20% fetal bovine serum and 1% antimycotic. Transfected cells are maintained at 37C in an air/5% CO2 incubator in 25 mm Petri dishes plated on glass coverslips for 24–48 hours to allow channel expression to occur. 20 min prior to experiments, cells are treated with beads coated with phOX. After 15 min, excess beads are […] off with cell culture medium and cells which had beads stuck to them are used for electrophysiological tests.
(§2) For whole-cell recording the control pipette filling solution contained (in mM): KCl, 130; EGTA, 5; MgCl2, 1; HEPES, 10; Na2ATP, 4; GTP, 0.1; and is adjusted to pH 7.2 with KOH. The control bath solution contained (in mM): NaCl, 135; KCI, 5; sodium acetate, 2.8; MgCl2, 1; HEPES, 10; CaCl2, 1; and is adjusted to pH 7.4 with NaOH. The test ion channel modulating compound is dissolved to 10 mM stock solutions in water and used at concentrations between 0.5 and 100 μM.
(§3) Coverslips containing cells are removed from the incubator before experiments and placed in a superfusion chamber (volume 250 μl) containing the control bath solution at 22C to 23C. All recordings are made via the variations of the patch-clamp technique, using an Axopatch 200A amplifier (Axon Instruments, CA). Patch electrodes are pulled from thin-walled borosilicate glass (World Precision Instruments; FL) on a horizontal micropipette puller, fire-polished, and filled with appropriate solutions. Electrodes had resistances of […] when filled with control filling solution. Analog capacity compensation is used in all whole cell measurements. In some experiments, leak subtraction is applied to data. Membrane potentials have not been corrected for any junctional potentials that arose between the pipette and bath solution. Data are filtered at 5 to 10 kHz before digitization and stored on a microcomputer for later analysis using the pClamp6 software (Axon Instruments, Foster City, Calif.). Due to the high level of expression of channel cDNA's in HEK cells, there is no need for signal averaging. The average cell capacitance is quite small, and the absence of ionic current at negative membrane potentials allowed faithful leak subtraction of data.
(§4) The concentration-response curves for changes in peak and steady-state current produced by the test compound are computer-fitted to the Hill equation: f=1−1/[1+([…])^n] [1]
(§5) where f is the fractional current (f=Idrug/Icontrol) at drug concentration [D]; IC50 is the concentration producing half-maximal inhibition and n is the Hill coefficient.
(§6) Compounds of the present invention may be evaluated by this method. […] Block is determined from the decrease in peak hH1 Na^+ current, or in steady-state Kv1.5 and integrated Kv4.2 current in the presence of drug. To record Na^+ current, cells are depolarized from the holding potential of −100 mV to a voltage of −30 mV for 10 ms to fully open and inactivate the channel. To record Kv1.5 and Kv4.2 current, cells are depolarized from the holding potential of −80 mV to a voltage of +60 mV for 200 ms to fully open the channel. Currents are recorded in the steady-state at a range of drug concentrations during stimulation every 4 s. […]

HERG = target: T2, HERG (Homo sapiens, UniProt Q12809); assay: Patch-clamp inhibition of cloned ion channel current in transfected HEK cells: HERG; type: cell-based; conditions: whole-cell patch clamp
T2 construct: expressed in transfected cells; host or cells: HEK cells, transient transfection, vector pCDNA3
Experimental: as §1, §2, §3, §4, §5, §6

T2 sequence (Q12809 whole entry): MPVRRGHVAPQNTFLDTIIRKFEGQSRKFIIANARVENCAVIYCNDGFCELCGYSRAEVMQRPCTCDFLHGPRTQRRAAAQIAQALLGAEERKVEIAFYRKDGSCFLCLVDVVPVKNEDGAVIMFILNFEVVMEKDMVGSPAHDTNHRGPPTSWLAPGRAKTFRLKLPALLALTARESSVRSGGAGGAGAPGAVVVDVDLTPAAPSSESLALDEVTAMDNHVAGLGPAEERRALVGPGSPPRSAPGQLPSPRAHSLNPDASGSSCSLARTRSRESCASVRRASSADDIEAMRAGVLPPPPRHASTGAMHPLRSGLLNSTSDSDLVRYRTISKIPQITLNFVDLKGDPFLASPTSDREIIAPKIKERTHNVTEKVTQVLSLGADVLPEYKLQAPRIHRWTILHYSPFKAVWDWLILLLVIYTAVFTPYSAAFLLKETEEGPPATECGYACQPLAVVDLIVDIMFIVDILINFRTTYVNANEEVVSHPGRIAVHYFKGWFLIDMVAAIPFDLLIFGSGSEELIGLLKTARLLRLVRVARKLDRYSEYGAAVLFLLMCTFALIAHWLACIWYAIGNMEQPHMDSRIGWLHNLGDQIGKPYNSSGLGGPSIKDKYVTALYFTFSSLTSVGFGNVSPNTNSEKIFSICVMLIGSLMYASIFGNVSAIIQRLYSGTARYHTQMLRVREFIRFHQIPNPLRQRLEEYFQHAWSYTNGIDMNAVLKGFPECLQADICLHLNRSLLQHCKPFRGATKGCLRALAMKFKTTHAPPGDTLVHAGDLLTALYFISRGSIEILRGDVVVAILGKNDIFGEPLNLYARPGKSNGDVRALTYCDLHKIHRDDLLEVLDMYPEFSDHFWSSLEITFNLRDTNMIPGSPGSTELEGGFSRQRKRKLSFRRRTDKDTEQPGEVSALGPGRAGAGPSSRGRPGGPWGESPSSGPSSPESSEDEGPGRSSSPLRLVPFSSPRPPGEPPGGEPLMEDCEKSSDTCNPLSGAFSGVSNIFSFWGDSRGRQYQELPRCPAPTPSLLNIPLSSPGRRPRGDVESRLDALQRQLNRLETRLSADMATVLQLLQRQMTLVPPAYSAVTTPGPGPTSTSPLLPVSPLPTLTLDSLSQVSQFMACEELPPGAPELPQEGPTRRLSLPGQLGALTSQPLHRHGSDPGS
T1 sequence (P22460 whole entry): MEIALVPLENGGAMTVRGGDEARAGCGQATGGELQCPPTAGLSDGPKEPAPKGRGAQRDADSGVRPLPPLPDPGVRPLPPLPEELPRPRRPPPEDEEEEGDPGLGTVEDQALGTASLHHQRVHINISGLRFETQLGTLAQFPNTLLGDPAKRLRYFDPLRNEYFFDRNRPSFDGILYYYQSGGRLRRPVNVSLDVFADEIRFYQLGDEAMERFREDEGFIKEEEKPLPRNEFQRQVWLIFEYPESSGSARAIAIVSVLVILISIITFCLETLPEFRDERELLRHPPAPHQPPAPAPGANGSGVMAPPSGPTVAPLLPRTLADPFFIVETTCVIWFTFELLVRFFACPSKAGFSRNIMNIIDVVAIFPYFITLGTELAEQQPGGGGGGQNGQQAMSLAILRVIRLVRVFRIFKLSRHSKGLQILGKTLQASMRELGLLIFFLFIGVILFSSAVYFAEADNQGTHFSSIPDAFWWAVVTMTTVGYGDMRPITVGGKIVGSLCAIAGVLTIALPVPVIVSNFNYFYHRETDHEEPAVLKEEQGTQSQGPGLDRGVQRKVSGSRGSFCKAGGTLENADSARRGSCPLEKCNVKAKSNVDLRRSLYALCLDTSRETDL

Row | SMILES | IC50 (Kv1.5) | IC50 (HERG)
1 | Cc1cn2ccc(C)c(OCC3(c4ccccc4)CC3)c2n1 [Compound 17, 2,7-DIMETHYL-8-[(1-PHENYL-CYCLOPROPYL)METHOXY]IMIDAZO[1,2-α]PYRIDINE MONOHYDROCHLORIDE] | 4000 nM | 1000 nM
2 | Cc1nc2c(OCCCc3ccc(Cl)cc3Cl)cccn2c1Br [Compound 19, 3-BROMO-8-[3-(2,4-DICHLOROPHENYL)PROPOXY]-2-METHYLIMIDAZO[1,2-α]PYRIDINE MONOHYDROCHLORIDE] | 300 nM | 400 nM
3 | Cc1nc2c(OCCCc3ccc(Cl)cc3Cl)cccn2c1Cl [Compound 22, 3-CHLORO-8-[3-(2,4-DICHLOROPHENYL)PROPOXY]-2-METHYLI[1,2-α]PYRIDINE MMONOHYDROCHLORIDE] | 400 nM | 1000 nM
4 | FC(F)(F)c1cn2cccc(OCC3(c4ccccc4)CC3)c2n1 [Compound 23, 8-[(1-PHENYLCYCLOPROPYL)METHOXY]-2-(TRIFLUOROMETHYL)IMIDAZO[1,2-α]PYRIDINE MMONOHYDROCHLORIDE] | 3000 nM | 9000 nM
5 | CNCc1c(C)nc2c(OCCCc3ccc(Cl)cc3Cl)cccn12 [Compound 24, 8-[3-(2,4-DICHLOROPHENYL)PROPOXY]-3-[(METHYLAMINO)METHYL]-2-METHYL-IMIDAZO[1,2-α]PYRIDINE DIHYDROCHLORIDE] | 2000 nM | 200 nM
6 | Cc1nc2c(OCCCc3ccc(Cl)cc3Cl)cccn2c1CN(C)C [Compound 25, 8-[3-(2,4-DICHLOROPHENYL)PROPOXY]-3-[(DIMETHYLAMINO)METHYL]-2-METHYLIMIDAZO[1,2-α]PYRIDINE DIHYDROCHLORIDE] | 8000 nM | 100 nM
7 | Cc1nc2c(OCCCc3ccc(Cl)cc3Cl)cccn2c1N [Compound 26, 3-AMINO-8-[3-(2,4-DICHLOROPHENYL)PROPOXY]-2-METHYLIMIDAZO[1,2-α]PYRIDINE DIHYDROCHLORIDE] | 800 nM | 200 nM
8 | Cc1nc2c(OCC3(c4ccccc4)CC3)cccn2c1Br [Compound 28, 3-BROMO-2-METHYL-8-[(1-PHENYL-CYCLOPROPYL)METHOXY]IMIDAZO[1,2-α]PYRIDINE MMONOHYDROCHLORIDE] | 800 nM | 2000 nM
9 | Clc1ccc(CCCOc2cccn3c4c(nc23)CCC4)c(Cl)c1 [Compound 29, 7-[3-(2,4-DICHLOROPHENYL)PROPOXY]-2,3-DIHYDRO-1H-3b,8-DIAZOCYCLOPENTA[a]indene MMONOHYDROCHLORIDE] | 700 nM | 80 nM
10 | CCOC(=O)c1c(C)nc2c(OCC3(c4ccccc4)CC3)cccn12 [Compound 30, ETHYL 2-METHYL-8-[(1-PHENYL-CYCLOPROPYL)METHOXY]IMIDAZO[1,2-α]PYRIDINE-3-CARBOXYLATE MMONOHYDROCHLORIDE] | 1000 nM | 2000 nM
11 | Cc1cn2c(C)ccc(OCCCc3ccccc3)c2n1 [Compound 32, 2,5-DIMETHYL-8-(3-PHENYLPROPOXY)IMIDAZO[1,2-α]PYRIDINE MONOHYDROCHLORIDE] | 4000 nM | 300 nM
12 | Cc1cn2c(C)ccc(OCCCc3ccc(Cl)cc3Cl)c2n1 [Compound 34, 8-[3-(2,4-DICHLOROPHENYL)PROPOXY]-2,5-DIMETHYLIMIDAZO[1,2-α]PYRIDINE MONOHYDROCHLORIDE] | 1000 nM | 40 nM
13 | Cc1nc2c(OCCCc3ccc(Cl)cc3Cl)cccn2c1C(=O)O [Compound 37, SODIUM 8-[3-(2,4-DICHLOROPHENYL)PROPOXY]-2-METHYLIMIDAZO[1,2-α]PYRIDINE-3-CARBOXYLATE] | 18000 nM | 4000 nM
14 | CC(C)c1cn2cccc(OCC3(c4ccccc4)CC3)c2n1 [Compound 38, 2-ISOPROPYL-8-[(1-PHENYL-CYCLOPROPYL)METHOXY]IMIDAZO[1,2-α]PYRIDINE MONOHYDROCHLORIDE] | 400 nM | 1000 nM
15 | Cc1nc2c(OCC3(c4ccccc4)CC3)cccn2c1Cl [Compound 39, 3-CHLORO-2-METHYL-8-[(1-PHENYL-CYCLOPROPYL)METHOXY]IMIDAZO[1,2-α]PYRIDINE MONOHYDROCHLORIDE] | 700 nM | 3000 nM
16 | Cc1nc2c(OCC3(c4ccccc4)CC3)cccn2c1CN(C)C [Compound 40, 3-(DIMETHYLAMINO)METHYL-2-METHYL-8-[(1-PHENYL-CYCLOPROPYL)METHOXY]-IMIDAZO[1,2-α]PYRIDINE DIHYDROCHLORIDE] | 23000 nM | 1000 nM
17 | CC(=O)Nc1c(C)nc2c(OCCCc3ccc(Cl)cc3Cl)cccn12 [Compound 41, 3-ACETAMIDO-8-[3-(2,4-DICHLOROPHENYL)PROPOXY]-2-METHYLIMIDAZO[1,2-α]PYRIDINE MONOHYDROCHLORIDE] | 5000 nM | 600 nM

The remaining molecules from weak to strong by IC50 (Kv1.5), led by results:

Row | IC50 (Kv1.5) | SMILES | IC50 (HERG)
18 | 4000 nM | Cc1nc2c(OCC3(c4ccccc4)CC3)cccn2c1CO [Compound 31, {2-METHYL-8-[(1-PHENYLCYCLOPROPYL)METHOXY]IMIDAZO[1,2-α]PYRIDIN-3-yl}-METHANOL MONOHYDROCHLORIDE] | 3000 nM
19 | 3000 nM | Cc1cn2ccc(C)c(OCCCc3ccccc3)c2n1 [Compound 18, 2,7-DIMETHYL-8-[3-PHENYLPROPRXY]IMIDAZO[1,2-α]PYRIDINE MONOHYDROCHLORIDE] | 1000 nM
20 | 3000 nM | Cc1cn2c(C)ccc(OCC3(c4ccccc4)CC3)c2n1 [Compound 33, 2,5-DIMETHYL-8-[(1-PHENYL-CYCLOPROPYL)METHOXY]IMIDAZO[1,2-α]PYRIDINE MONOHYDROCHLORIDE] | 900 nM
21 | 2000 nM | Cc1nc2c(OCCCc3ccc(Cl)cc3Cl)cccn2c1CO [Compound 21, {8-[3-(2,4-DICHLOROPHENYL)PROPOXY]-2-METHYLIMIDAZO[1,2-α]PYRIDIN-3-yl}METHANOL MMONOHYDROCHLORIDE] | 60 nM
22 | 1600 nM | Cc1nc2c(OCC3(c4ccccc4)CC3)cccn2c1N [Compound 43, 3-AMINO-2-METHYL-8-[(1-PHENYL-CYCLOPROPYL)METHOXy]IMIDAZO[1,2-α]PYRIDINE MONOHYDROCHLORIDE] | 700 nM
23 | 700 nM | Cc1cn2ccc(C)c(OCCCc3ccc(Cl)cc3Cl)c2n1 [Compound 14, 8-[3-(2,4-DICHLOROPHENYL)PROPOXY]-2,7-DIMETHYLIMIDAZO[1,2-α]PYRIDINE MONOHYDROCHLORIDE] | –
24 | 600 nM | Clc1ccc(CCCOc2cccn3c4c(nc23)CCCC4)c(Cl)c1 [Compound 27, 4-[3-(2,4-DICHLOROPHENYL)PROPOXY]-6,7,8,9-TETRAHYDROBENZO[4,5]IMIDAZO-[1,2-α]PYRDINE MMONOHYDROCHLORIDE] | 100 nM
25 | 200 nM | CC(C)c1cn2cccc(OCCCc3ccc(Cl)cc3Cl)c2n1 [Compound 20, 8-[3-(2,4-DICHLOROPHENYL)PROPOXY]-2-ISOPROPYLIMIDAZO[1,2-α]PYRIDINE MONOHYDROCHLORIDE] | 100 nM
